Test results as given in patent US8198279B2, “Pyrido[2,3-b]pyrazin-8-substituted compounds and their use” (Institute of Cancer Research: Royal Cancer Hospital (The), priority 2007, dated 2012).

How the values were obtained:
B-RAF = molecular target: T1, B-RAF (Homo sapiens, UniProt P15056, V600E); test: DELFIA Kinase Assay; type: biochemical; settings: 100 μM ATP, GST-MEK substrate
T1 construct: made in house
Method in brief: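 Recombinant B-RAF (V600E) with GST-MEK substrate was preincubated with compound for 10 min at room temperature, then reacted with 100 μM ATP for 45 min on milk-preblocked wells, with antibody detection by DELFIA europium fluorescence. Response is taken as % of DMSO control after empty-vector blank subtraction; IC50 is from a variable-slope sigmoidal fit, mean of usually three independent runs.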

pERK = test: Cell Based Phospho-ERK Assay; settings: 6 h, 6 hours incubation with test compound
Method: Biological Methods—Cell Based Phosho-ERK Assay
Compounds were assessed using a cell-based assay which was performed according to the following protocol.
Plate out 16,000 cells/well in 99 μL medium in a 96-well plate.
• 1. Add 1 μL inhibitor to the cells (total […] solution). • 2. Incubate the cells with test compound for 6 hours at 37° C. • 3. Aspirate off the solution from all of the wells. • 4. Fixate the cells with 100 μL 4% formaldehyde/0.25% Triton X-100 PBS per well. • 5. Incubate the plate for 1 hour at 4° C. • 6. Aspirate off the fixing solution and add 300 μL TBS per well. • 7. Leave the plate overnight at 4° C. Day 2: • 1. Wash the plate 2× with 200 μL PBS per well. • 2. Block with 100 μL 5% dried milk in TBS. • 3. Incubate the plate for 20 minutes at 37° C. • 4. Wash the plate 2× with 0.1% tween/H2O. • 5. Add 50 μL of 3 μg/mL primary antibody pERK (Sigma M8159), diluted in 5% milk powder/TBS, to each well. • 6. Incubate the plate for 2 hours at 37° C. • 7. Wash the plate 3× with 0.1% tween/H2O. • 8. Add 50 μL of 0.45 μg/mL secondary Europium-labelled anti-mouse antibody (Perkin Elmer) to each well. • 9. Incubate the plate for 1 hour at 37° C. • 10. Wash the plate 3× with 0.1% tween/H2O. • 11. Add 100 μL enhancement solution (Perkin Elmer) to each well. • 12. Leave the plate for approximately 10 minutes at room temperature before gently shaking the plate. • 13. Read Europium Time Resolved Fluorescence in Victor2. • 14. Wash the plate 2× with 0.1% tween/H2O. • 15. Measure the protein concentration with BCA (Sigma) by adding 200 μL of solution per well. • 16. Incubate the plate for 30 minutes at 37° C. • 17. Read absorbance levels at 570 nm in a plate reader.
Note that Europium counts are normalised for protein levels by dividing counts by absorbance.
Values for the blank (no cells) are subtracted from all values. The DMSO controls are set as 100% activity and assay points (the response) are calculated as a percentage of the DMSO control. Data are plotted using Graphpad Prism software and a non-linear regression line is calculated using a variable slope sigmoidal dose-response equation (Y=Bottom+(Top−Bottom)/(1+10^((LogEC50−X)*HillSlope)) where X is the logarithm of concentration. Y is the response). The IC50 generated by this procedure is the concentration of the drug that produces a percentage control fluorescence value midway between the saturation, and zero-effect plateaus. Three independent assays are usually performed and the mean IC50 is reported.

WM266.4 melanoma cells = test: SRB Cell Proliferation Assay (SRB GI50); type: cell-based; settings: Homo sapiens, WM 266-4, 144 h, 6 days growth
Method: Biological Methods —SRB Cell Proliferation Assay (SRB GI50)
Cultures of WM266.4 melanoma cells are routinely cultured in DMEM/10% foetal bovine serum, at 37° C., in 5% CO2 water saturated atmosphere. Cultures are maintained in exponential growth phase by sub-culturing before having become confluent (3-5 day intervals). Single cell suspensions are prepared by harvesting an 80 cm^2 tissue culture flask with 5 mL commercial trypsin EDTA. After 5 minutes, the detached cells are mixed with 5 mL fully complemented culture medium and centrifugally pelleted (1000 rpm for 7 minutes). After aspirating the supernatant, the cell pellet is re-suspended in 10 mL fresh medium and the cells fully disaggregated by drawing the whole volume up/down 5 times through a 19-gauge needle. The concentration of the cells is determined using a haemocytometer (1/10 dilution). A suitable volume to give at least a 2-fold excess for the number of tests being conducted, typically 100-200 mL, is prepared by diluting the cell suspension to 10,000/mL, and 100 μL/well dispensed into 96 well plates using a programmable 8-channel peristaltic pump, giving 1000 cells/well, leaving column 12 blank. The plates are returned to the incubator for 24 hours to allow the cells to re-attach.
The compounds being tested are prepared at 20 mM in dimethylsulphoxide. Aliquots (200 μL) are diluted into 20 mL culture medium giving 200 μM, and 10 serial dilutions of 3× performed by transferring 5 mL to 10 mL. Aliquots (100 μL) of each dilution are added to the wells, using an 8-channel pipettor, thus performing a final further 2× dilution, and giving doses ranging from 100 μM to 0.005 μM. Column 11 receives plain culture medium only. Each compound is tested in quadruplicate, each replicate being the average of four wells, and two plates per compound.
After a further 6 days growth, the plates are emptied, and the cells are fixed in 10% trichloroacteic acid for 10 minutes on ice. After thorough rinsing in running tap water, the plates are dried, and stained by adding 50 μL of a solution of 0.1% sulphorhodamine-B in 1% acetic acid, for 10 minutes at room temperature. The stain is poured out and the plates thoroughly rinsed under a stream of 1% acetic acid, thus removing unbound stain, and dried. The bound stain is taken into solution by addition of 150 μL Tris buffer pH 8, followed by 10 minutes on a plate-shaker (approximately 500 rpm). The absorbance at 540 nm in each well (being proportional to the number of cells present) is determined using a plate reader.
After averaging the results in rows A-D and E-H, the blank value (row 12) is subtracted, and results expressed as percentage of the untreated value (row 11). […] The GI50 generated by this procedure is the concentration of the drug that produces a percentage control A540 midway between the saturation, and zero-effect plateaus.

T1 sequence (P15056 whole entry V600E): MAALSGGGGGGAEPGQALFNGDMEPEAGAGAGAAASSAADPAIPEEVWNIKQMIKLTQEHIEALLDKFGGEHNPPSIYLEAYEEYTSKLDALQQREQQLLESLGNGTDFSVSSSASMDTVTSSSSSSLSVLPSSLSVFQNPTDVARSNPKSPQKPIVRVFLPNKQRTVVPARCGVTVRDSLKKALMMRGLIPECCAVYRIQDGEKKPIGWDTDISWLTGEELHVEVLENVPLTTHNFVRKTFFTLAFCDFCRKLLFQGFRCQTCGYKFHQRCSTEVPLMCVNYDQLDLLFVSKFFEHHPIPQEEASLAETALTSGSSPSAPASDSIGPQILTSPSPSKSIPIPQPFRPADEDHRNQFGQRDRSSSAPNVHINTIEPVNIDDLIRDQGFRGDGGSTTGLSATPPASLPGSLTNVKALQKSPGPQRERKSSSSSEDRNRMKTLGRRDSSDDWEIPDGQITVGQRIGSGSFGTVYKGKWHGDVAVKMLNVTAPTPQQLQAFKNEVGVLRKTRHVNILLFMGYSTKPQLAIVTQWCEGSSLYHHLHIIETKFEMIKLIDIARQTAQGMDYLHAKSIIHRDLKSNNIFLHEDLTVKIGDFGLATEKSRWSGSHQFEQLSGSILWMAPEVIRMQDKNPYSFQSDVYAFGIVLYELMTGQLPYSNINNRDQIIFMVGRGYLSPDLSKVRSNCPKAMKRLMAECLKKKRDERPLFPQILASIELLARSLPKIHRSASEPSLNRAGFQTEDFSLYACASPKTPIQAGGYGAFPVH

| IC50 (B-RAF) [nM] | IC50 (pERK) [nM] | GI50 (WM266.4 melanoma cells) [nM] | Structure (SMILES) |
| --- | --- | --- | --- |
| < 100 | < 1000 | < 1000 | COc1ccc(-n2nc(C(C)(C)C)cc2NC(=O)Nc2ccc(Oc3ccnc4[nH]c(=O)c(C)nc34)cc2SC)cn1 [AA-064, 1-(3-tert-butyl-1-(6-methoxypyridin-3-yl)-1H-pyrazol-5-yl)-3-(4-(2-methyl-3-oxo-3,4-dihydropyrido[2,3-b]pyrazin-8-yloxy)-2-(methylthio)phenyl)urea] |
| < 100 | < 1000 | < 1000 | CSc1cc(Oc2ccnc3[nH]c(=O)c(C)nc23)ccc1NC(=O)Nc1cc(C(C)(C)C)nn1-c1ccccc1 [AA-065, 1-(3-tert-butyl-1-phenyl-1H-pyrazol-5-yl)-3-(4-(2-methyl-3-oxo-3,4-dihydropyrido[2,3-b]pyrazin-8-yloxy)-2-(methylthio)phenyl)urea] |
| 100 to 1000 | < 1000 | < 1000 | CSc1cc(Oc2ccnc3ncc(=O)[nH]c23)ccc1NC(=O)Nc1cc(C(C)(C)C)nn1-c1ccccc1 [AA-066, 1-(3-tert-butyl-1-phenyl-1H-pyrazol-5-yl)-3-(2-(methylthio)-4-(2-oxo-1,2-dihydropyrido[2,3-b]pyrazin-8-yloxy)phenyl)urea] |
| < 100 | < 1000 | < 1000 | CSc1cc(Oc2ccnc3[nH]c(=O)cnc23)ccc1NC(=O)Nc1cc(C(C)(C)C)nn1-c1ccccc1 [AA-067, 1-(3-tert-butyl-1-phenyl-1H-pyrazol-5-yl)-3-(2-(methylthio)-4-(3-oxo-3,4-dihydropyrido[2,3-b]pyrazin-8-yloxy)phenyl)urea] |
| < 100 | 1000 to 10000 | 1000 to 10000 | O=C(Nc1cncc(C(F)(F)F)c1)Nc1ccc(Oc2ccnc3[nH]c(=O)cnc23)cc1F [AA-069, 1-(2-fluoro-4-(3-oxo-3,4-dihydropyrido[2,3-b]pyrazin-8-yloxy)phenyl)-3-(5-(trifluoromethyl)pyridin-3-yl)urea] |
| 100 to 1000 | < 1000 | < 1000 | CC(C)(C)c1cc(NC(=O)Nc2ccc(Oc3ccnc4nc(N5CCOCC5)cnc34)cc2F)n(-c2ccccc2)n1 [AA-071, 1-(3-Tert-butyl-1-phenyl-1H-pyrazol-5-yl)-3-(2-fluoro-4-(3-morpholinopyrido[3,2-b]pyrazin-8-yloxy)phenyl)urea] |
| < 100 | < 1000 | 1000 to 10000 | O=C(Nc1ccc(Oc2ccnc3[nH]c(=O)c(=O)[nH]c23)cc1F)Nc1cc(C(F)(F)F)ccc1F [AA-072, 1-(4-(2,3-Dioxo-1,2,3,4-tetrahydropyrido[3,2-b]pyrazin-8-yloxy)-2-fluorophenyl)-3-(2-fluoro-5-(trifluoromethyl)phenyl)urea] |
| < 100 | < 1000 | < 1000 | Cc1ccc(-n2nc(C(C)(C)C)cc2NC(=O)Nc2ccc(Oc3ccnc4[nH]c(=O)c(=O)[nH]c34)cc2F)cc1 [AA-074, 1-(3-Tert-butyl-1-p-tolyl-1H-pyrazol-5-yl)-3-(4-(2,3-dioxo-1,2,3,4-tetrahydropyrido[3,2-b]pyrazin-8-yloxy)-2-fluorophenyl)urea] |
| < 100 | < 1000 | < 1000 | CC(C)(C)c1cc(NC(=O)Nc2cccc(Oc3ccnc4[nH]c(=O)cnc34)c2)n(-c2ccccc2)n1 [AA-075, 1-(3-tert-butyl-1-phenyl-1H-pyrazol-5-yl)-3-(3-(3-oxo-3,4-dihydropyrido[2,3-b]pyrazin-8-yloxy)phenyl)urea] |
| 100 to 1000 | 1000 to 10000 | 1000 to 10000 | CC(C)(C)c1cc(NC(=O)Nc2cccc(Oc3ccnc4ncc(=O)[nH]c34)c2)n(-c2ccccc2)n1 [AA-076, 1-(3-tert-butyl-1-phenyl-1H-pyrazol-5-yl)-3-(3-(2-oxo-1,2-dihydropyrido[2,3-b]pyrazin-8-yloxy)phenyl)urea] |
| 100 to 1000 | < 1000 | < 1000 | Cc1ccc(-n2nc(C(C)(C)C)cc2NC(=O)Nc2ccc(Oc3ccnc4[nH]c(=O)c(N)nc34)c3ccccc23)cc1 [AA-077, 1-(4-(2-amino-3-oxo-3,4-dihydropyrido[2,3-b]pyrazin-8-yloxy)naphthalen-1-yl)-3-(3-tert-butyl-1-p-tolyl-1H-pyrazol-5-yl)urea] |
| 100 to 1000 | < 1000 | < 1000 | Cc1ccc(-n2nc(C(C)(C)C)cc2NC(=O)Nc2cccc(Oc3ccnc4[nH]c(=O)c(C)nc34)c2)cc1 [AA-078, 1-(3-tert-butyl-1-p-tolyl-1H-pyrazol-5-yl)-3-(3-(2-methyl-3-oxo-3,4-dihydropyrido[2,3-b]pyrazin-8-yloxy)phenyl)urea] |
| < 100 | < 1000 | < 1000 | Nc1nc2nccc(Oc3ccc(NC(=O)Nc4cc(C(F)(F)F)ccc4F)c4ccccc34)c2[nH]c1=O [AA-079, 1-(4-(3-amino-2-oxo-1,2-dihydropyrido[2,3-b]pyrazin-8-yloxy)naphthalen-1-yl)-3-(2-fluoro-5-(trifluoromethyl)phenyl)urea] |
| < 100 | < 1000 | < 1000 | CC(C)(C)c1cc(NC(=O)Nc2ccc(Oc3ccnc4[nH]c(=O)c(N)nc34)c3ccccc23)n(-c2ccccc2)n1 [AA-080, 1-(4-(2-amino-3-oxo-3,4-dihydropyrido[2,3-b]pyrazin-8-yloxy)naphthalen-1-yl)-3-(3-tert-butyl-1-phenyl-1H-pyrazol-5-yl)urea] |
| 100 to 1000 | < 1000 | < 1000 | CC(C)(C)c1cc(NC(=O)Nc2ccc(Oc3ccnc4nc(N)c(=O)[nH]c34)c3ccccc23)n(-c2ccccc2)n1 [AA-081, 1-(4-(3-amino-2-oxo-1,2-dihydropyrido[2,3-b]pyrazin-8-yloxy)naphthalen-1-yl)-3-(3-tert-butyl-1-phenyl-1H-pyrazol-5-yl)urea] |
| 100 to 1000 | 1000 to 10000 | 1000 to 10000 | O=C(Nc1cc(C(F)(F)F)ccc1F)Nc1ccc(Oc2ccnc3nc(C(F)(F)F)c(=O)[nH]c23)c2ccccc12 [AA-083, 1-(2-fluoro-5-(trifluoromethyl)phenyl)-3-(4-(2-oxo-3-(trifluoromethyl)-1,2-dihydropyrido[2,3-b]pyrazin-8-yloxy)naphthalen-1-yl)urea] |
